# Several values for one entry are separate records, joined by “and”; a condition that tells them apart may be missing. Equal entries are not always repeated.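 Step 1: Grow cells in 96-well plates. Step 2: Expose to compound for 48 hours at 5 concentrations. Step 3: Interpolate endpoints linearly; if unreached, use highest concentration. GI50 is the concentration that inhibits growth by half. At the TGI there is no net growth.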
# Legend:
# Assay in all cases: DTP human tumour cell line panel, 48 h
# HS 578T breast = test system: HS 578T breast
# SW-620 colon = test system: SW-620 colon
# DU-145 prostate = test system: DU-145 prostate
# RPMI-8226 leukemia = test system: RPMI-8226 leukemia
# 786-0 renal = test system: 786-0 renal
# HL-60(TB) leukemia = test system: HL-60(TB) leukemia
# NCI-H23 lung = test system: NCI-H23 lung
# CCRF-CEM leukemia = test system: CCRF-CEM leukemia
# UO-31 renal = test system: UO-31 renal
# PC-3 prostate = test system: PC-3 prostate
# MOLT-4 leukemia = test system: MOLT-4 leukemia
# K-562 leukemia = test system: K-562 leukemia
# HOP-92 NSCLC = test system: HOP-92 NSCLC
# ACHN renal = test system: ACHN renal
# RXF 393 renal = test system: RXF 393 renal
# A549 NSCLC = test system: A549 NSCLC
# NCI/ADR-RES ovarian = test system: NCI/ADR-RES ovarian
# MCF7 breast = test system: MCF7 breast
# SF-539 CNS = test system: SF-539 CNS
# SNB-19 CNS = test system: SNB-19 CNS
# SK-MEL-28 melanoma = test system: SK-MEL-28 melanoma
# EKVX NSCLC = test system: EKVX NSCLC
# M14 melanoma = test system: M14 melanoma
# TK-10 renal = test system: TK-10 renal
# CAKI-1 renal = test system: CAKI-1 renal
# NCI-H460 lung = test system: NCI-H460 lung
# MALME-3M melanoma = test system: MALME-3M melanoma
# NCI-H522 lung = test system: NCI-H522 lung
# LOX IMVI melanoma = test system: LOX IMVI melanoma
# SK-OV-3 ovarian = test system: SK-OV-3 ovarian
# HOP-62 NSCLC = test system: HOP-62 NSCLC
# OVCAR-5 ovarian = test system: OVCAR-5 ovarian
# OVCAR-3 ovarian = test system: OVCAR-3 ovarian
# UACC-257 melanoma = test system: UACC-257 melanoma
# SK-MEL-2 melanoma = test system: SK-MEL-2 melanoma
# HCT-116 colon = test system: HCT-116 colon
# MDA-MB-435 = test system: MDA-MB-435
# SF-268 CNS = test system: SF-268 CNS
# HCC-2998 colon = test system: HCC-2998 colon
# OVCAR-4 ovarian = test system: OVCAR-4 ovarian
# UACC-62 melanoma = test system: UACC-62 melanoma
# A498 renal = test system: A498 renal
# SN12C renal = test system: SN12C renal
# SNB-75 CNS = test system: SNB-75 CNS
# NCI-H226 lung = test system: NCI-H226 lung
# BT-549 breast = test system: BT-549 breast
# SR leukemia = test system: SR leukemia
# HT29 colon = test system: HT29 colon
# HCT-15 colon = test system: HCT-15 colon
# MDA-MB-231 breast = test system: MDA-MB-231 breast
# OVCAR-8 ovarian = test system: OVCAR-8 ovarian
# COLO 205 colon = test system: COLO 205 colon
# KM12 colon = test system: KM12 colon
# U251 CNS = test system: U251 CNS
# SF-295 CNS = test system: SF-295 CNS
# T-47D breast = test system: T-47D breast
# SK-MEL-5 melanoma = test system: SK-MEL-5 melanoma
# IGROV1 ovarian = test system: IGROV1 ovarian
compound,measurement,setting,value
c1ccc(-c2c(-c3ccccc3)[n+](Cc3ccc4ccccc4c3)c(-c3ccccc3)n2Cc2ccc3ccccc3c2)cc1,GI50,HS 578T breast,370 nM
same,TGI,HS 578T breast,1830 nM
same,GI50,SW-620 colon,326 nM
same,TGI,SW-620 colon,1380 nM
same,GI50,DU-145 prostate,365 nM
same,TGI,DU-145 prostate,1430 nM
same,GI50,RPMI-8226 leukemia,56.8 nM
same,TGI,RPMI-8226 leukemia,505 nM
same,GI50,786-0 renal,352 nM
same,TGI,786-0 renal,1860 nM
same,GI50,HL-60(TB) leukemia,150 nM
same,TGI,HL-60(TB) leukemia,400 nM
same,GI50,NCI-H23 lung,224 nM
same,TGI,NCI-H23 lung,727 nM
same,GI50,CCRF-CEM leukemia,241 nM
same,TGI,CCRF-CEM leukemia,1240 nM
same,GI50,UO-31 renal,672 nM
same,TGI,UO-31 renal,2940 nM
same,GI50,PC-3 prostate,200 nM
same,TGI,PC-3 prostate,862 nM
same,GI50,MOLT-4 leukemia,285 nM
same,TGI,MOLT-4 leukemia,1130 nM
same,GI50,K-562 leukemia,181 nM
same,TGI,K-562 leukemia,1230 nM
same,GI50,HOP-92 NSCLC,158 nM
same,TGI,HOP-92 NSCLC,592 nM
same,GI50,ACHN renal,401 nM
same,TGI,ACHN renal,1390 nM
CN1CCN(Cc2ccc(NC(=O)c3cncc(C#Cc4cnc5ccc(NC6CCOCC6)nn45)c3)cc2C(F)(F)F)CC1,GI50,HS 578T breast,54.2 nM and 31.7 nM
same,TGI,HS 578T breast,368 nM and 335 nM
same,GI50,RXF 393 renal,58.9 nM and 39.5 nM
same,TGI,RXF 393 renal,174 nM and 180 nM
same,GI50,A549 NSCLC,84.1 nM and 74.8 nM
same,TGI,A549 NSCLC,459 nM and 671 nM
same,GI50,NCI/ADR-RES ovarian,2640 nM and 1670 nM
same,TGI,NCI/ADR-RES ovarian,10900 nM and 4620 nM
same,GI50,MCF7 breast,41.5 nM
same,TGI,MCF7 breast,543 nM and 377 nM
same,GI50,SF-539 CNS,17.6 nM and 17.5 nM
same,TGI,SF-539 CNS,83.2 nM and 112 nM
same,GI50,SNB-19 CNS,137 nM and 174 nM
same,TGI,SNB-19 CNS,4370 nM and 882 nM
same,GI50,SK-MEL-28 melanoma,179 nM and 155 nM
same,TGI,SK-MEL-28 melanoma,986 nM and 344 nM
same,GI50,EKVX NSCLC,98.8 nM and 102 nM
same,TGI,EKVX NSCLC,903 nM and 591 nM
same,GI50,M14 melanoma,66.4 nM and 49.4 nM
same,TGI,M14 melanoma,156 nM and 200 nM
same,GI50,TK-10 renal,156 nM
same,TGI,TK-10 renal,759 nM
same,GI50,SW-620 colon,76.6 nM and 21.3 nM
same,TGI,SW-620 colon,1640 nM and 167 nM
same,GI50,DU-145 prostate,125 nM and 60.9 nM
same,TGI,DU-145 prostate,2160 nM and 431 nM
same,GI50,CAKI-1 renal,98.7 nM and 39.5 nM
same,GI50,NCI-H460 lung,62.7 nM and 33.9 nM
same,TGI,NCI-H460 lung,837 nM and 197 nM
same,GI50,MALME-3M melanoma,99.6 nM and 78 nM
same,TGI,MALME-3M melanoma,588 nM and 246 nM
same,GI50,NCI-H522 lung,42.3 nM and 20.2 nM
same,TGI,NCI-H522 lung,116 nM and 137 nM
same,GI50,RPMI-8226 leukemia,136 nM and 123 nM
same,TGI,RPMI-8226 leukemia,434 nM and 456 nM
same,GI50,786-0 renal,202 nM and 90 nM
same,TGI,786-0 renal,742 nM and 355 nM
same,GI50,HL-60(TB) leukemia,139 nM and 43.2 nM
same,TGI,HL-60(TB) leukemia,384 nM and 336 nM
same,GI50,LOX IMVI melanoma,55.5 nM and 24.8 nM
same,TGI,LOX IMVI melanoma,140 nM and 172 nM
same,GI50,SK-OV-3 ovarian,116 nM
same,TGI,SK-OV-3 ovarian,439 nM
same,GI50,HOP-62 NSCLC,59.9 nM and 43.3 nM
same,TGI,HOP-62 NSCLC,507 nM and 300 nM
same,GI50,OVCAR-5 ovarian,125 nM and 149 nM
same,TGI,OVCAR-5 ovarian,752 nM and 773 nM
same,GI50,OVCAR-3 ovarian,135 nM and 70.3 nM
same,TGI,OVCAR-3 ovarian,752 nM and 300 nM
same,GI50,NCI-H23 lung,114 nM
same,TGI,NCI-H23 lung,529 nM
same,GI50,UACC-257 melanoma,203 nM and 191 nM
same,TGI,UACC-257 melanoma,1420 nM and 614 nM
same,GI50,CCRF-CEM leukemia,20.5 nM
same,GI50,UO-31 renal,584 nM and 235 nM
same,TGI,UO-31 renal,3050 nM and 749 nM
same,GI50,PC-3 prostate,108 nM and 114 nM
same,TGI,PC-3 prostate,5340 nM and 1160 nM
same,GI50,SK-MEL-2 melanoma,95.1 nM and 111 nM
same,TGI,SK-MEL-2 melanoma,197 nM and 246 nM
same,GI50,HCT-116 colon,71.6 nM and 18.3 nM
same,TGI,HCT-116 colon,265 nM and 455 nM
same,GI50,MDA-MB-435,119 nM and 63 nM
same,TGI,MDA-MB-435,761 nM and 268 nM
same,GI50,SF-268 CNS,74.3 nM and 42.9 nM
same,TGI,SF-268 CNS,930 nM and 293 nM
same,GI50,HCC-2998 colon,226 nM and 189 nM
same,TGI,HCC-2998 colon,2460 nM and 519 nM
same,GI50,OVCAR-4 ovarian,157 nM and 102 nM
same,TGI,OVCAR-4 ovarian,5950 nM and 733 nM
same,GI50,UACC-62 melanoma,120 nM and 145 nM
same,TGI,UACC-62 melanoma,685 nM and 323 nM
same,GI50,A498 renal,161 nM and 214 nM
same,TGI,A498 renal,425 nM and 366 nM
same,GI50,SN12C renal,24.1 nM and 21.5 nM
same,TGI,SN12C renal,804 nM and 549 nM
same,GI50,SNB-75 CNS,67.8 nM
same,TGI,SNB-75 CNS,198 nM and 22.4 nM
same,GI50,NCI-H226 lung,67.5 nM
same,TGI,NCI-H226 lung,5790 nM
same,GI50,BT-549 breast,120 nM and 275 nM
same,TGI,BT-549 breast,770 nM and 860 nM
same,GI50,SR leukemia,35.5 nM
same,TGI,SR leukemia,506 nM and 351 nM
same,GI50,MOLT-4 leukemia,42 nM
same,TGI,MOLT-4 leukemia,1140 nM and 612 nM
same,GI50,HT29 colon,115 nM and 70.4 nM
same,TGI,HT29 colon,506 nM and 501 nM
same,GI50,HCT-15 colon,324 nM and 205 nM
same,TGI,HCT-15 colon,5100 nM and 667 nM
same,GI50,MDA-MB-231 breast,48.2 nM and 19.6 nM
same,TGI,MDA-MB-231 breast,219 nM and 241 nM
same,GI50,OVCAR-8 ovarian,107 nM and 65.2 nM
same,TGI,OVCAR-8 ovarian,645 nM and 495 nM
same,GI50,COLO 205 colon,24.6 nM and 33.6 nM
same,TGI,COLO 205 colon,90.7 nM and 127 nM
same,GI50,KM12 colon,5 nM
same,TGI,KM12 colon,667 nM and 389 nM
same,GI50,K-562 leukemia,5 nM
same,TGI,K-562 leukemia,741 nM and 108 nM
same,GI50,U251 CNS,125 nM and 134 nM
same,TGI,U251 CNS,610 nM and 349 nM
same,GI50,SF-295 CNS,63.2 nM and 208 nM
same,TGI,SF-295 CNS,3810 nM and 812 nM
same,GI50,HOP-92 NSCLC,36.7 nM and 15.6 nM
same,TGI,HOP-92 NSCLC,175 nM and 69.4 nM
same,GI50,T-47D breast,165 nM and 167 nM
same,TGI,T-47D breast,1480 nM and 973 nM
same,GI50,SK-MEL-5 melanoma,296 nM and 158 nM
same,TGI,SK-MEL-5 melanoma,1030 nM and 312 nM
same,GI50,ACHN renal,161 nM and 155 nM
same,TGI,ACHN renal,736 nM and 965 nM
same,GI50,IGROV1 ovarian,84.7 nM and 20.8 nM
same,TGI,IGROV1 ovarian,321 nM and 212 nM

# From PubChem BioAssay (NCI)
